Source: paper PMC6471485, “Selective Inhibitors of a Human Prolyl Hydroxylase (OGFOD1) Involved in Ribosomal Decoding” (Chemistry (Weinheim an Der Bergstrasse, Germany), 2019)
“Also recorded” adds a separate entry of the source.

How the values were obtained:
Tpa1p = Tpa1p (Saccharomyces cerevisiae, UniProt P40032); test: Tpa1p inhibition assay (Figure S12); type: biochemical; settings: Tpa1p 2 µM (Figure S12)
MDR1-MDCK = MDR1-MDCK in vitro permeability assay (Cyprotex); type: in vitro ADME; settings: for cell permeability, in words: MDR1-MDCK; for predicted blood-brain barrier permeability, in words: prediction from MDR1-MDCK assay
Protocol: (§1) supplemented with 80 µM Zn(II), 70 µM of inhibitor, all in 50 mM Tris-d11, pH 7.5, 10 % D2O, […]
(§2) Cell Culture and Immunoblotting
(§3) HeLa cells were cultured in DMEM media supplemented with 10 % fetal bovine serum, 4 mM L-glutamine, 100 U/mL penicillin, and 100 µg/mL streptomycin. Cells were treated with the indicated compounds, prepared in 1% DMSO, for 5 h. Following a PBS buffer rinse, cells were lysed in urea/SDS buffer supplemented with 1 mM dithiothreitol. Cell extracts were analyzed by SDS-PAGE, electroblotted onto PVDF membranes (Millipore) and probed with anti-HIF-1α antibody (clone 54, BD Transduction Laboratories) at 1:1000 dilution for 1 h at room temperature. The HRP-conjugated secondary antibody was then applied at room temperature for 1 h. Target proteins were detected with SuperSignal Chemiluminescent […]
(§4) ADMET in vitro Predictors
(§5) S9 liver microsome stability assays and MDCK-MDR1 efflux assays were carried out for CCT3 and CCT4 by Cyprotex (UK). Additional details are provided later in the Supporting […]
(§6) The solubility and metabolic stability of CCT3 and CCT4 was preliminarily evaluated using a S9 liver microsome assay (Cyprotex, UK). According to the assay, CCT3 and CCT4 had […]
(§7) respectively, and are thus classified as having low clearance (< 8.6 µL/min/mg protein).
(§8) The cell permeability of CCT3 and CCT4 were evaluated using an MDR1-MDCK in vitro […]
(§9) able to penetrate the blood-brain barrier. The permeability coefficients were determined to be

[1] = MDR1-MDCK in vitro permeability assay (Cyprotex); type: in vitro ADME; settings: dog; MDR1-MDCK; read-out: permeability coefficient
Protocol: as §1, §2, §3, §4, §5, §6, §7, §8, §9

OGFOD1 = molecular target: T1, OGFOD1 (Homo sapiens, UniProt Q8N543); test: CPMG-edited 1H NMR binding experiment with OGFOD1; settings: 30 µM inhibitor, 30 µM OGFOD1
T1 sequence (Q8N543 1-542): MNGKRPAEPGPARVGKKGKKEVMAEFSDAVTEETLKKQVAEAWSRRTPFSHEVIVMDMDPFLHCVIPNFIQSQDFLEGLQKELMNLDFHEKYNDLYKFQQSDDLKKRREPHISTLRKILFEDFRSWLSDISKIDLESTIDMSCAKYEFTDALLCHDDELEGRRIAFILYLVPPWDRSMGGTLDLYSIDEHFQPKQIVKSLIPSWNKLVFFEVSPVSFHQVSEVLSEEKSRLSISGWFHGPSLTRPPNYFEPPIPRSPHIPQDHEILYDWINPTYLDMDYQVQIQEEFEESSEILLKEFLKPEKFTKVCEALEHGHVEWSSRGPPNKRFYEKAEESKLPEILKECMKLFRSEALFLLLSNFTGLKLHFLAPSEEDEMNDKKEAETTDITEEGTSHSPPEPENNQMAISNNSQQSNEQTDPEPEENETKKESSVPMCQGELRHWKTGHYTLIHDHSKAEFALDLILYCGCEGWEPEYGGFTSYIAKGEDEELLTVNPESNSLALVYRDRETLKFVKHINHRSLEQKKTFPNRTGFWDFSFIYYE
Protocol: RapidFire integrator software (Agilent). Percent conversion was calculated in Excel, and IC50 curves were generated using Prism v. 7.0 (GraphPad).
Differential Scanning Fluorimetry (DSF) Assays
Assays consisted of enzyme (2 µM), inhibitor (200 µM), MnCl2 (50 µM), and SYPRO Orange (1:5000 dilution), all prepared in 50 mM HEPES, pH 7.5. Assays were conducted using white 96-well RT-PCR plates. An Opticon thermal cycler (MJ Research Inc) was used to control temperature and measure fluorescence. Data were processed using the OpticonMONITOR Analysis Software, while curve fitting was performed in Prism […]
Stable small-molecule inhibitor conformations were investigated using the MM2 force field method in ChemBio3D 11.0 (PerkinElmer Informatics). Protein structures were aligned using PyMOL version 2.0 (Schrödinger, LLC). The small-molecule inhibitors were then modelled into the protein active sites, overlaying them with the already contained inhibitor, if applicable (e.g., FG2216 with PHD2, PDB 3HQU; N-oxalylglycine with OGFOD1, PDB 4NHX). […]
CPMG Binding Experiments: Binding of the inhibitors to the proteins was monitored using Carr-Purcell-Meiboom-Gill (CPMG)-edited 1H spectra. […]
Competition Experiments by 2OG Displacement: 2OG displacement assays[12] were performed using CPMG-edited 1H spectra. […] The 2OG methylene resonance at 2.35 ppm was monitored. […]

Sequence of Tpa1p (P40032 whole entry): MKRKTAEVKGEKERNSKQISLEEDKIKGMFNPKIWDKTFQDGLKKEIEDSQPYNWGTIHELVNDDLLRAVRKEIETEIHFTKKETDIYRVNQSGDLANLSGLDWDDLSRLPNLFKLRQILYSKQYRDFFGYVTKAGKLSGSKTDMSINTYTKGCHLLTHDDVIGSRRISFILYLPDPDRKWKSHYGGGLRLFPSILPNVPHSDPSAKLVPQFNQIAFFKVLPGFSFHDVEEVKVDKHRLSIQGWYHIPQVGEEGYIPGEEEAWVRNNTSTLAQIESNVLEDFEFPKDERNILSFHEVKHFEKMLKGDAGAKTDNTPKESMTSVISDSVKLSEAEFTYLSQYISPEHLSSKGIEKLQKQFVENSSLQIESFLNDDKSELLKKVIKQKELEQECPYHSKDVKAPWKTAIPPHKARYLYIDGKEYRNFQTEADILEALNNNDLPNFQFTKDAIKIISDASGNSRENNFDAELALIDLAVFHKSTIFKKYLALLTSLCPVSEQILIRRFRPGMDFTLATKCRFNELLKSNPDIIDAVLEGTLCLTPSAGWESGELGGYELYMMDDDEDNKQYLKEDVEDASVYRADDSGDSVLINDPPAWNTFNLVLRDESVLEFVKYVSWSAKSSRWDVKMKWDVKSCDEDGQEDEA

Structure (SMILES)	inhibition of Tpa1p, in words (Tpa1p)	cell permeability, in words (MDR1-MDCK)	predicted blood-brain barrier permeability, in words (MDR1-MDCK; listed as CCT3)	Papp [1]	binding to OGFOD1 by 1H CPMG NMR, in words (OGFOD1; listed as CCT3)	predicted blood-brain barrier permeability, in words (MDR1-MDCK; listed as CCT4)	binding to OGFOD1 by 1H CPMG NMR, in words (OGFOD1; listed as CCT4)
Cn1c(O)c(C(=O)CCc2ccccc2)c(=O)n(C)c1=O [compound 26]	potently inhibit	good cell permeability properties	brain uptake is likely; also recorded: predicted to be permeable to the blood brain barrier	58.5 ×10⁻⁶ cm/s	strong binding; also recorded: strongly bind to OGFOD1		
Cn1c(O)c(C(=O)CCc2cccs2)c(=O)n(C)c1=O [compound 42]	potently inhibit	good cell permeability properties		62.7 ×10⁻⁶ cm/s		brain uptake is likely; also recorded: predicted to be permeable to the blood brain barrier	strong binding; also recorded: strongly bind to OGFOD1
